Test results taken from article PMC10572855, “Phenotypic Test of Benzo[4,5]imidazo[1,2-c]pyrimidinone-Based Nucleoside and Non-Nucleoside Derivatives against DNA and RNA Viruses, Including Coronaviruses” (International Journal of Molecular Sciences, 2023).

How the values were obtained:
[1] = Cell growth inhibition in HEL299 cells, Coulter Counter; assay type: cell-based; settings: human, 3 days of cell growth, read-out: Cytotoxicity Cell Growth (CC50)
Protocol: (§1) Cells were seeded at a rate of 5 × 10^3 cells/well into 96-well plates and allowed to proliferate for 24 h. Then, a medium containing different concentrations of the test compounds, starting at 100 mM, was added. After 3 days of incubation at 37 °C, the cell count was determined with a Beckman Coulter counter or, alternatively, cell viability was determined with the colorimetric formazan-based MTS assay. […] The cytotoxic effects of the compounds were also assessed by evaluating the MCC (minimum cytotoxic concentration that causes a microscopically detectable alteration of cell morphology).

HEL299 cells = settings: minimum cytotoxic concentration, microscopically detectable alteration of cell morphology
Protocol: as §1

TK- VZV strain 07-1 [2] = assay: microbe, parasite or virus in culture; settings: Human alphaherpesvirus 3, HEL 299, read-out: Antiviral Activity (EC50) TK− VZV Strain 07-1
TK+ VZV strain OKA = assay: microbe, parasite or virus in culture; assay type: cell-based, Varicella zoster virus; settings: Human alphaherpesvirus 3, HEL 299, read-out: Antiviral Activity (EC50) TK+ VZV Strain OKA
[3] = molecular target: SARS-CoV-2 RdRp (nsp12, nsp7-nsp8) (Severe acute respiratory syndrome coronavirus 2, UniProt P0DTD1); assay: In vitro transcription assay with SARS-CoV-2 RdRp; assay type: biochemical; settings: RdRp 1 µM, RNA substrate 25 nM, 100 µM NTPs, 30 °C; read-out: IC50, inhibition of RdRp activity (RNA primer extension)
HCoV 229E = assay: Cytopathic effect reduction, HCoV 229E; assay type: cell-based, Human coronavirus 229E; settings: Human coronavirus 229E; reduction of virus-induced cytopathic effect by 50%; virus input 100 TCID50; read-out: Antiviral Activity (EC50) HCoV 229E
in vitro = settings: green monkey
[4] = molecular target: T1, SARS-CoV-2 N-protein and stem-loop vgRNA fragment condensates (Severe acute respiratory syndrome coronavirus 2, UniProt P0DTC9); assay: Cell-free LLPS assay, N-protein:vgRNA condensates; assay type: biochemical
T1 construct: His-tag; made in house

RSV (Long) = assay: Cytopathic effect reduction, RSV (Long); assay type: cell-based, Respiratory syncytial virus; settings: human respiratory syncytial virus; reduction of virus-induced cytopathic effect by 50%; virus input 100 TCID50; read-out: Antiviral Activity (EC50) RSV Long
[5] = tested on: SARS-CoV-2 NVDBB-2220 (UK); assay: Cytopathic effect reduction, SARS-CoV-2 NVDBB-2220 (UK) in Vero cells; assay type: cell-based; settings: Severe acute respiratory syndrome coronavirus 2, CPE reduced by 50%, 100 TCID50, read-out: Antiviral Activity (EC50) NVDBB-2220 (UK)
[6] = tested on: SARS-CoV-2 B1.1 529 BA.1 (Omicron); assay: Cytopathic effect reduction, SARS-CoV-2 B1.1 529 BA.1 (Omicron) in Vero cells; assay type: cell-based; settings: Severe acute respiratory syndrome coronavirus 2, CPE reduced by 50%, read-out: Antiviral Activity (EC50) B1.1 529 BA.1 (Omicron)
[7] = tested on: SARS-CoV-2 860-J1 (Delta); assay: Cytopathic effect reduction, SARS-CoV-2 860-J1 (Delta) in Vero cells; assay type: cell-based; settings: Severe acute respiratory syndrome coronavirus 2, CPE reduced by 50%, 100 TCID50, read-out: Antiviral Activity (EC50) 860-J1 (Delta)
HCoV OC43 = assay: Cytopathic effect reduction, HCoV OC43; assay type: cell-based, Human coronavirus OC43; settings: Betacoronavirus 1, OC43; reduction of virus-induced cytopathic effect by 50%; virus input 100 TCID50; read-out: Antiviral Activity (EC50) HCoV OC43
HCoV NL63 = assay: Cytopathic effect reduction, HCoV NL63; assay type: cell-based, Human coronavirus NL63; settings: Human coronavirus NL63; reduction of virus-induced cytopathic effect by 50%; virus input 100 TCID50; read-out: Antiviral Activity (EC50) HCoV NL63
[8] = Cytotoxicity in Huh7 cells, MTS assay; assay type: cell-based, Human; settings: human, Huh7 cells, cell growth reduced by 50%
Protocol: as §1

SARS-CoV-2 (all strains) = assay: Cytopathic effect reduction, various SARS-CoV-2 strains in Vero cells; assay type: cell-based; settings: Severe acute respiratory syndrome coronavirus 2, read-out: EC50 against all SARS-CoV-2 strains
[9] = Cytotoxicity in HEL299 cells, MTS assay; assay type: cell-based, Human; settings: human, HEL299 cells, cell growth reduced by 50%
Protocol: as §1

[10] = tested on: SARS-CoV-2 UC-1074 (Wuhan); assay: Cytopathic effect reduction, SARS-CoV-2 UC-1074 (Wuhan) in Vero cells; assay type: cell-based; settings: Severe acute respiratory syndrome coronavirus 2, UC1074, CPE reduced by 50%, 100 TCID50, read-out: Antiviral Activity (EC50) UC-1074 (Wuhan)
Vero cells = settings: minimum cytotoxic concentration, microscopically detectable alteration of cell morphology
TK- VZV strain 07-1 [11] = assay: in vitro; settings: human
[12] = 20 µM compound, 3 µM N-protein, 6 µM RNA

Structure (SMILES)	CC50 at 3 days [1]	Cytotoxicity Cell Morphology (MCC) (HEL299 cells)	EC50 (TK- VZV strain 07-1 [2])	EC50 (TK+ VZV strain OKA)	effect on LLPS / condensates (summary in words) ([4]; 20 µM compound)	EC50 [6]	EC50 [10]	Cytotoxicity Cell Morphology (MCC) (Vero cells)	other results
Nc1nc2c(ncn2COCCO)c(=O)[nH]1 [Aciclovir, reference compound]	> 100 µM	>100 μM							
O=c1[nH]c(=O)n([C@H]2C[C@H](O)[C@@H](CO)O2)cc1/C=C/Br [Brivudine, reference compound]	> 100 µM	>100 μM	0.14 ± 0.03 µM	0.1 ± 0.07 µM					
COc1ccc(C(OC[C@H]2O[C@@H](n3ccc4nc5cc(O)ccc5n4c3=O)C[C@@H]2O)(c2ccccc2)c2ccc(OC)cc2)cc1 [Compound 3a, 2-((2R,4S,5R)-5-((bis(4-methoxyphenyl)(phenyl)methoxy)methyl)-4-hydroxytetrahydrofuran-2-yl)-7-hydroxybenzo[4,5]imidazo[1,2-c]pyrimidin-1(2H)-one]		20 μM	> 4 µM	> 4 µM	robust LLPS inhibitor	10.6 ± 0.7 µM	8.82 ± 0.21 µM		IC50 [3]: 94 ± 3 µM; EC50 (HCoV 229E): 8.5 ± 0.36 µM; CC50 (in vitro): > 100 µM; decrease of the average number of droplets [4, 12]: approximately 60%; decrease of the partitioning coefficient (droplet/solution N-protein concentration ratio) [4, 12]: 60–70%; median droplet diameter [4, 12]: 1.1 µm; EC50 ([4]; dose-dependent effect, 3 µM N-protein, 6 µM RNA, read-out: EC50 of inhibition of condensate formation (LLPS)): ≤ 10 µM; EC50 (RSV (Long)): 0.67 ± 0.23 µM; EC50 [5]: 8.92 ± 6.38 µM; EC50 [7]: 11.3 ± 3.5 µM; EC50 (HCoV OC43): < 0.8 µM; EC50 (HCoV NL63): > 100 µM; CC50 at 3 days [8]: < 0.8 µM; EC50 (SARS-CoV-2 (all strains)): ~10 µM; CC50 at 3 days [9]: > 100 µM
COc1ccc(C(OC[C@H]2O[C@@H](n3ccc4nc5cc(O)ccc5n4c3=O)[C@H](O)[C@@H]2O)(c2ccccc2)c2ccc(OC)cc2)cc1 [Compound 3b, 2-((2R,3R,4S,5R)-5-((bis(4-methoxyphenyl)(phenyl)methoxy)methyl)-3,4-dihydroxytetrahydrofuran-2-yl)-7-hydroxybenzo[4,5]imidazo[1,2-c]pyrimidin-1(2H)-one]		20 μM	> 4 µM	> 4 µM	minor	> 20 µM	> 20 µM	20 μM	IC50 [3]: 95 ± 4 µM; EC50 (HCoV 229E): 4.1 ± 2 µM; EC50 (RSV (Long)): 5.7 ± 0.8 µM; EC50 (HCoV OC43): < 0.8 µM; EC50 (HCoV NL63): > 100 µM; CC50 at 3 days [8]: < 0.8 µM; CC50 at 3 days [9]: > 20 µM
COc1ccc(C(OC[C@H]2O[C@@H](n3ccc4nc5cc(OC)ccc5n4c3=O)C[C@@H]2O)(c2ccccc2)c2ccc(OC)cc2)cc1 [Compound 7a, 2-((2R,4S,5R)-5-((bis(4-methoxyphenyl)(phenyl)methoxy)methyl)-4-hydroxytetrahydrofuran-2-yl)-7-methoxybenzo[4,5]imidazo[1,2-c]pyrimidin-1(2H)-one]	> 100 µM	100 μM	3.28 ± 2.23 µM	8.15 ± 3.59 µM	caused no changes	> 100 µM	> 20 µM	>100 μM	selectivity ratio (TK- VZV strain 07-1 [11]): > 30
COc1ccc(C(OC[C@H]2O[C@@H](n3ccc4nc5cc(OC)ccc5n4c3=O)[C@H](O)[C@@H]2O)(c2ccccc2)c2ccc(OC)cc2)cc1 [Compound 7b, 2-((2R,3R,4S,5R)-5-((bis(4-methoxyphenyl)(phenyl)methoxy)methyl)-3,4-dihydroxytetrahydrofuran-2-yl)-7-methoxybenzo[4,5]imidazo[1,2-c]pyrimidin-1(2H)-one]	10.3 ± 5.63 µM	≥100 μM	7.13 ± 0.94 µM	30.7 ± 4.68 µM		> 20 µM	> 20 µM	>100 μM	
COc1ccc2c(c1)nc1ccn([C@H]3C[C@H](O)[C@@H](CO)O3)c(=O)n12 [Compound 8a, 2-((2R,4S,5R)-4-hydroxy-5-(hydroxymethyl)tetrahydrofuran-2-yl)-7-methoxybenzo[4,5]imidazo[1,2-c]pyrimidin-1(2H)-one]		100 μM	> 20 µM	> 20 µM		> 20 µM	> 20 µM	100 μM	
COc1ccc2c(c1)nc1ccn([C@@H]3O[C@H](CO)[C@@H](O)[C@H]3O)c(=O)n12 [Compound 8b, 2-((2R,3R,4S,5R)-3,4-dihydroxy-5-(hydroxymethyl)tetrahydrofuran-2-yl)-7-methoxybenzo[4,5]imidazo[1,2-c]pyrimidin-1(2H)-one]		100 μM	> 20 µM	> 20 µM		> 20 µM	> 20 µM	100 μM	
COc1ccc(C(OC[C@H]2O[C@@H](n3ccc(N)nc3=O)C[C@@H]2O)(c2ccccc2)c2ccc(OC)cc2)cc1 [Compound 9a, 4-amino-1-((2R,4S,5R)-5-((bis(4-methoxyphenyl)(phenyl)methoxy)methyl)-4-hydroxytetrahydrofuran-2-yl)pyrimidin-2(1H)-one]		100 μM	> 20 µM	> 20 µM	reduced droplet density but did not prevent LLPS	> 100 µM	> 100 µM	>100 μM	decrease in the partitioning coefficient [4, 12]: approximately 4 fold
COc1ccc(C(OC[C@H]2O[C@@H](n3ccc(N)nc3=O)[C@H](O)[C@@H]2O)(c2ccccc2)c2ccc(OC)cc2)cc1 [Compound 9b, 4-amino-1-((2R,3R,4S,5R)-5-((bis(4-methoxyphenyl)(phenyl)methoxy)methyl)-3,4-dihydroxytetrahydrofuran-2-yl)pyrimidin-2(1H)-one]		≥20 μM	> 20 µM	> 4 µM		> 20 µM	> 20 µM	100 μM	
CC(C)C(=O)OC[C@H]1O[C@@H](n2ccc(NO)nc2=O)[C@H](O)[C@@H]1O [Molnupiravir]						5.2 ± 0.23 µM	5.52 ± 0.28 µM	>100 μM	CC50 (in vitro): > 100 µM; EC50 [5]: 3.08 ± 2.12 µM; EC50 [7]: 5.78 ± 0.29 µM
CCC(CC)COC(=O)[C@H](C)N[P@](=O)(OC[C@H]1O[C@@](C#N)(c2ccc3c(N)ncnn23)[C@H](O)[C@@H]1O)Oc1ccccc1 [Remdesivir, reference compound]						0.91 ± 0.17 µM	1.96 ± 1 µM	≥40 μM	EC50 (HCoV 229E): 0.03 µM; CC50 (in vitro): ≥ 40 µM; EC50 (RSV (Long)): 0.02 µM; EC50 [5]: 0.72 ± 0.15 µM; EC50 [7]: 3.23 ± 0.61 µM; EC50 (HCoV OC43): 0.03 µM; EC50 (HCoV NL63): 0.03 µM; CC50 at 3 days [8]: > 10 µM; CC50 at 3 days [9]: > 10 µM
